Test results reported in paper PMC10419416, “Fighting Pseudomonas aeruginosa Infections: Antibacterial and Antibiofilm Activity of D-Q53 CecB, a Synthetic Analog of a Silkworm Natural Cecropin B Variant” (International Journal of Molecular Sciences, 2023).
Non-standard residues stand in square brackets, D forms with d. Residues, ends and D or L forms follow the SMILES beside them. No end group written: not given here.

What was measured:
[1] = test system: P. aeruginosa biofilms (ATCC 25668); assay: Confocal microscopy of pre-formed biofilm, thickness; type: cell-based, Pseudomonas aeruginosa; details: 1 h treatment with 1 MIC (2.2 μM) of 24 h old biofilm; 6-8 confocal fields
Method: Bacteria cells (1 × 10^6 cells/mL) were grown in Permanox four-wells chamber slide systems (1.8 cm^2/well; Nunc® Lab-Tek® Chamber SlideTM system) at 37 °C for 24 h without agitation to allow biofilm formation. […] Negative controls, treated with LB only, were followed in parallel. […] After each staining, samples were washed twice with PBS. After washing, samples were fixed in 4% Paraformaldehyde, mounted in VECTASHIELD® mounting medium (Vector Laboratories, Newark, CA, USA), and observed using a Zeyss LSM 900 Airyscan 2 confocal microscope and a ×63 oil immersion objective. Optical sections (Z-series) were taken at 0.2 μm intervals. Experiments were performed four times (one-two replicates per condition). […] EPS was visualized using a 405 nm wavelength for excitation and 413-480 nm for emission (blue); to detect proteins or Propidium Iodide (red), a 543 nm wavelength for excitation and 590-610 nm for emission were used. Post-acquisition analyses were performed with Fiji (http://fiji.sc/wiki/index.php, downloaded on 4 April 2022). Cross-section views (x-z and y-z planes were obtained with the “Orthogonal View” plugin. To evaluate live and dead cells, images of single 0.13 μm slices taken in the upper part of the biofilm (i.e., in contact with the peptide during treatment) were processed using the “Counting Objects” plugin, and the same threshold level for red and green colors.

P. aeruginosa ATCC 25668 = assay: CFU assay of medium over treated 24 h old biofilm; type: cell-based, Pseudomonas aeruginosa; details: for mean CFUs/mL decrement vs untreated control: 1 MIC, 1 h; for living bacterial cells in the medium, Mean ± SEM: 1 h treatment of 24 h-old biofilm with 1 MIC (2.2 μM), four experiments, control 2.67 ± 2.67 × 10^15
[2] = test system: human red blood cells (hRBCs); type: cell-based; details: for MHC (minimum hemolytic concentration causing 5% hemolysis of hRBCs): red cells of human, 1 h
Method: The peptide hemolytic activity was evaluated against human red blood cells (hRBCs) using the Haemolysis Assay Kit (HaemoScan, Groningen, The Netherlands), following the manufacturer’s instructions. 180 μL of hRBC solution were incubated 1 h at 37 °C with 20 μL of serially diluted L- and D-CecB Q53 peptides (final concentrations of 5, 10, 25, 50, 100, 200 µM) in triplicate. As hemolysis positive and negative controls, hRBC solutions incubated, respectively, with 0.2% Triton X and PBS, were followed in parallel. After centrifugation 10 min at 10,000× g, each supernatant was diluted 1:10 in the Assay Buffer and read at 450 nm with a microplate reader.
Hemolysis was evaluated according to the following equation: Hemolysis (%)=ODCecB−OD0/ODCtrl−OD0×100, where ODCecB is the OD in the presence of the peptide, ODCtrl is the OD of treated controls (0.2% Triton X), and OD0 is the background absorbance. The experiment was performed at least twice.

[3] = test system: P. aeruginosa ATCC 25668 strain; assay: Motility assay (swimming, swarming, twitching); type: cell-based, Pseudomonas aeruginosa; details: 1/2 MIC L-Q53 CecB or 1/4 MIC D-Q53 CecB; for effect on swimming motility: 0.3% agar LB plates; for effect on swarming motility: 0.5% agar LB plates; for effect on twitching motility (bacterial growth area): 1% agar LB plates
Method: The motility assay was performed as in [36], with minor modifications. […] Inocula were performed with a sterile toothpick (i) within the medium to detect swimming, (ii) on the top of the medium to detect swarming, and (iii) on the bottom of the plate to detect twitching. Bacteria grown and plated in the absence of any peptide were processed as negative controls. Plates were incubated at 30 °C (for swimming and swarming) or 37 °C (for twitching) and monitored for 24–48 h. Plate images were taken with a digital camera. Post-acquisition analyses were performed with Fiji, an open-source image-processing package based on ImageJ (http://fiji.sc/wiki/index.php, downloaded on 4 April 2022). Swimming, swarming, and twitching data were obtained by calculating the area of the growing zone over the total area of each plate. Values were expressed as percentages. Each type of motility was evaluated in at least four independent experiments, each with one replica per condition.

[4] = test system: P. aeruginosa ATCC 25668 strain; assay: EPS determination, phenol-sulfuric acid method; type: cell-based, Pseudomonas aeruginosa; details: 20 h incubation; 1/2 MIC L-Q53 CecB or 1/4 MIC D-Q53 CecB; OD490
Method: Experiments were performed in LB medium supplemented 2% glucose to enhance the EPS production, as in [46]. Five mL of bacterial cultures (1 × 10^6 cells/mL) were added to the same volume of the peptide at a dilution not-inhibiting the bacterial growth (final concentrations 1.1 and 0.55 µM for L- and D-Q53 CecB, respectively, as in Section 4.11) and incubated at 37 °C for 20 h with agitation (200 rpm). 10 mL of bacterial culture (5 × 10^5 cells/mL) without any peptide were grown in parallel. Samples were incubated at 37 °C for 20 h with agitation. Glucan levels were determined as in [46, 75] with some modifications. For each sample, 5 mL were centrifuged at 5000× g for 10 min, and supernatants were collected in clean tubes; pellets were washed twice in 2.5 mL autoclaved water and centrifuged at 5000× g for 10 min, collecting supernatants again. Three volumes of chilled absolute ethanol were added to the collected supernatants and placed at 4 °C ON to precipitate polysaccharides. After centrifugation at 10,000× g for 10 min, pellets were washed with chilled ethanol 70% and resuspended in 5 mL 0.1 M NaOH. Two mL of 5% aqueous solution of phenol and 5 mL of concentrated sulphuric acid were added. Mixtures were incubated 10 min at RT in the dark, vortexed 30 sec, placed in a water bath at 25 °C 20 min and read at 490 nm. The experiment was performed four times, each condition in duplicate.

P. aeruginosa ATCC 27853 = assay: CFU assay of medium over treated 24 h old biofilm; type: cell-based, Pseudomonas aeruginosa; details: for mean CFUs/mL decrement vs untreated control: 1 MIC, 1 h; for living bacterial cells in the medium, Mean ± SEM: 1 h treatment of 24 h-old biofilm with 1 MIC (2.2 μM), four experiments, control 3.06 ± 2.07 × 10^14

CC[C@@H](C)[C@@H](NC(=O)[C@@H](C)NC(=O)[C@@H](CCCCN)NC(=O)[C@@H](C)NC(=O)[C@@H](CO)NC(=O)CNC(=O)[C@@H](CC(C)C)NC(=O)[C@H](NC(=O)[C@@H](CCC(N)=O)NC(=O)[C@H](NC(=O)[C@@H](C)NC(=O)[C@H]1CCCN1C(=O)CNC(=O)[C@@H](C)NC(=O)[C@@H](CCCCN)NC(=O)[C@H](NC(=O)[C@H](NC(=O)CNC(=O)[C@@H](CC(=O)O)NC(=O)[C@@H](CCCNC(=N)N)NC(=O)[C@H](NC(=O)[C@@H](CC(N)=O)NC(=O)[C@@H](CCCNC(=N)N)NC(=O)CNC(=O)[C@@H](CCSC)NC(=O)[C@@H](CCCCN)NC(=O)[C@@H](CCC(=O)O)NC(=O)[C@H](NC(=O)[C@@H](CCCCN)NC(=O)[C@@H](CCCCN)NC(=O)[C@@H](Cc1ccccc1)NC(=O)[C@H](NC(=O)[C@@H](CCCCN)NC(=O)[C@@H](Cc1c[nH]c2ccccc12)NC(=O)[C@H](N)CCCNC(=N)N)[C@H](C)CC)[C@H](C)CC)[C@H](C)CC)[C@H](C)CC)C(C)C)[C@H](C)CC)C(C)C)C(N)=O [D-Q53 CecB] (H-[dR][dW][dK][dI][dF][dK][dK][dI][dE][dK][dM]G[dR][dN][dI][dR][dD]G[dI][dV][dK][dA]G[dP][dA][dI][dQ][dV][dL]G[dS][dA][dK][dA][dI]-NH2; N-terminus and C-terminus assumed)
reduction in biofilm thickness vs untreated controls [1]: ~ 77%
mean CFUs/mL decrement vs untreated control (P. aeruginosa ATCC 25668): 7 orders of magnitude
living bacterial cells in the medium, Mean ± SEM (P. aeruginosa ATCC 25668): 6.70 ± 6.6 × 10^8 CFUs/mL
mean hemolysis ([2]; 100 µM): 5.9%
MHC (minimum hemolytic concentration causing 5% hemolysis of hRBCs) [2]: 100 µM
effect on swimming motility [3]: not able to affect
effect on swarming motility [3]: not able to affect
effect on twitching motility (bacterial growth area) [3]: significant reductions
effect on water-soluble EPS production [4]: significantly reduce
mean CFUs/mL decrement vs untreated control (P. aeruginosa ATCC 27853): 4 orders of magnitude
living bacterial cells in the medium, Mean ± SEM (P. aeruginosa ATCC 27853): 1.07 ± 1.06 × 10^10 CFUs/mL

RWKIFKKIEKMGRNIRDGIVKAGPAIQVLGSAKAI-NH2 [L-Q53 CecB]
reduction in biofilm thickness vs untreated controls [1]: did not significantly reduce biofilm thickness
mean CFUs/mL decrement vs untreated control (P. aeruginosa ATCC 25668): 10 orders of magnitude
living bacterial cells in the medium, Mean ± SEM (P. aeruginosa ATCC 25668): 2.89 ± 2.38 × 10^5 CFUs/mL
MHC (minimum hemolytic concentration causing 5% hemolysis of hRBCs) [2]: >200 µM
effect on swimming motility [3]: not able to affect
effect on swarming motility [3]: not able to affect
effect on twitching motility (bacterial growth area) [3]: no effect
effect on water-soluble EPS production [4]: did not show any significant effect
mean CFUs/mL decrement vs untreated control (P. aeruginosa ATCC 27853): 6 orders of magnitude
living bacterial cells in the medium, Mean ± SEM (P. aeruginosa ATCC 27853): 7.03 ± 4.10 × 10^8 CFUs/mL
